# Measurements from patent US20200079814A1, “Nucleotides comprising an N-[(S)-1-cyclobutoxycarbonyl]phosphoramidate moiety and analogs and application thereof” (priority 2017, published 2020).
# “And” between values parts separate entries of the source, which are not always exact repeats. Equal values may be shown once. Read-outs that look alike come from different tables or passages of the source. Marks after values point to notes of the source that are not given here.
# How the values were obtained:
# HCV = settings: literature; cited from earlier work
# [1] = tested on: HIV strain NL4.3 carrying the GFP-reporter (NL4.3-GFP); assay: microbe, parasite or virus in culture; assay type: cell-based; settings: for EC50: Human immunodeficiency virus 1, SUP-T1, 45 h; for SI = CC50/EC50: SupT1 cells
# Description: (§1) The antiviral activity of tested compounds was evaluated on the T-lymphocytes line, SupT1. The cells were infected with the HIV strain NL4.3 carrying a gene encoding the green fluorescent protein (NL4.3-GFP). A virus preparation was obtained by means of transfection of the 293T cells of […] DNA. After 48 hours of transfection, the medication was frozen and stored until being used. To increase the efficiency of infection, the suspension of SupT1 cells was sedimented from the infection mixture by centrifugation. Tested compounds were added to the cells immediately before adding the virus. After 2 hours of incubation, the infection mixture was replaced by a fresh culture medium with tested compounds. The efficiency of infection was evaluated after 45 hours by computing the percentage of fluorescence-bright cells against uninfected cell cultures. Concurrently, the cytotoxicity of tested compounds was evaluated in the same, but uninfected, cell line SupT1 using the XTT reagent. To determine antiviral activity and cytotoxicity, serial tenfold dilutions of the preparations were used (starting with 10 j-M for antiviral activity and from 100 μM for cytotoxicity). DMSO (0.1%) was used for negative control. The values of EC50, CC50 and SI (selectivity index) were found. The quality of tests was evaluated based on the following controls: signal to background ratio, integrase inhibitor raltegravir (1 μM), and reproducibility of test results. Emetine (0.03, 0.09, and 0.2 μM) was used as the reference for cytotoxicity evaluation.
# [2] = Cytotoxicity in uninfected SupT1 cells (XTT reagent); assay type: cell-based; settings: human, uninfected SupT1 cells (T-lymphocyte line)
# Description: as §1
# [3] = Stability in human liver S9 fraction
# Description: (§2) Initial compositions comprising the prodrug of formula 1B.7 (the tested compounds) were prepared with a concentration of 10 mM in DMSO. From said compositions, 100-fold working solutions were prepared with a concentration of 100 μM in a mixture of acetonitrile:water with a volumetric ratio of 1:1.
# (§3) The samples were then centrifuged, and the supernatant (150 μl) was sampled for analysis […]. The incubation was performed in two replicates, with each sample measured twice.
# (§4) Samples were analyzed using an HPLC-MS/MS technique developed for each tested prodrug, wherein the chromatographic system 1290 Infinity II (Agilent Technologies) was combined with the tandem mass spectrometer QTRAP5500 (AB Sciex). […] Scanning in a total ion current mode (MS1) allowed us to identify a molecular ion for each compound, and basic product ions were recorded in MS2 mode. […] In quantitative chromatogram processing, the most intensive MRM transition was used for the analyte and the internal standard. […]
# (§5) Half-life (T1/2) was found from the kinetics of tested prodrug elimination in an antiviral composition during incubation in a biological matrix. […] From linear dependence of log normalized areas of chromatographic peaks on time, the constant of elimination rate was calculated (k is linear section slope).
# [4] = pooled human blood plasma, 1 μM, 37° C.
# Description: as §2, §3, §4, §5
# physchem = settings: for half-life at 1 μM: simulated gi fluid
# Description: as §2
# b) Stability in Artificial Gastric and Intestinal Juices.
# The tested composition comprising the prodrug of formula 1B.7 in a final concentration of 1 μM was incubated in artificial gastric juice (0.2% NaCl in 0.7% v/v HCl) and artificial intestinal juice (0.05M KH2PO4, pH 6.75). The incubation was performed in a Vortemp56 shaking incubator at 37° C. with stirring at a rate of 300 rev/min. […] The samples were then centrifuged, and the supernatant (150 μl) was sampled for analysis […]. The incubation was performed in two replicates, with each sample measured twice.
# Samples were analyzed using an HPLC-MS/MS technique developed for each tested prodrug, wherein the chromatographic system 1290 Infinity II (Agilent Technologies) was combined with the tandem mass spectrometer QTRAP5500 (AB Sciex). When developing conditions for mass-spectrometric detection, the solutions of tested compounds in a mixture of acetonitrile-water 1:1 with a concentration of 100 ng/ml were injected directly into the mass spectrometer using a syringe pump with electrospray ionization in a positive ion mode. Scanning in a total ion current mode (MS1) allowed us to identify a molecular ion for each compound, and basic product ions were recorded in MS2 mode. Then, to attain maximum sensitivity, the MS/MS technique was optimized in MRM mode. In quantitative chromatogram processing, the most intensive MRM transition was used for the analyte and the internal standard. Separation was carried out by means of linear gradient elution chromatography on a YMC Triart C18 column (50×2 mm, 1.9 μm) in a mobile phase consisting of 0.1% formic acid in water and 0.1% formic acid in acetonitrile. Tolbutamide (Fluka) was used as the internal standard.
# Half-life (T1/2) was found from the kinetics of tested prodrug elimination in an antiviral composition during incubation in a biological matrix. The computations were based on the values of chromatographic peak areas for compounds in test samples normalized to the internal standard signal. From linear dependence of log normalized areas of chromatographic peaks on time, the constant of elimination rate was calculated (k is linear section slope).
# [5] = from M. J. Sofia et al. J. Med. Chem. 2010; cited from earlier work
# [6] = tested on: HCV replicon, genotype 1b (gT1b HCV NS5B); settings: cited from earlier work; for EC50: from hcvdruginfo.ca
# [7] = from M. J. Sofia et al. J. Med. Chem. 2010; cited from earlier work; remark: listed apart in the source
# [8] = from M. J. Sofia et al. J. Med. Chem. 2010; cited from earlier work; remark: listed apart in the source
# [9] = from M. J. Sofia et al. J. Med. Chem. 2010; cited from earlier work; remark: listed apart in the source
# [10] = tested on: HCV replicon, genotype 1b (gT1b HCV NS5B); assay: Anti-HCV activity in Huh7 cells stably transfected with an HCV replicon; assay type: cell-based
# Description: The antiviral activity of tested compositions comprising prodrugs was evaluated using an Huh7 human hepatocellular carcinoma cell line stably transfected with an HCV replicon. A cell suspension in a complete culture medium (DMEM 1X, Cellgro; cat. #10-013-CV) was transferred into 96-well plates (50 μl per well) with a final density of 7500 cells per well. The serial dilutions of tested prodrugs were prepared from a fresh 200-fold generic solution in DMSO with 11 concentration points dilution for each step, starting from 20 nM in a complete medium and were used as 2-fold solutions in two replicates. Minimum 4 hours after planting the cells, 50 μl of serial prodrug dilutions was added to each well. […] The plate with cells was incubated for 3 days at 37° C. under humidified 5% CO2. Upon completion of incubation, the medium was removed by turning the plate over and shaking it carefully. The cells were fixed for one minute with 100 μl of a 1:1 acetone:methanol solution, washed 3 times with a phosphate buffer (PBS), and blocked for 1 h at room temperature using a 10% fetal bovine serum (FBS) in PBS (150 μl/well). […] The reaction was stopped by 2N H2SO4 (100 μl/well), and OD490 was measured using the multifunctional reader Victor^3 V 1420 (Perkin Elmer). The values of EC50 for tested prodrugs were measured from an activity curve plotted using the GraphPad Prizm software.
# [11] = tested on: Huh7 human hepatocellular carcinoma cell line; settings: from M. J. Sofia et al. J. Med. Chem. 2010; cited from earlier work
# SupT1 cells = assay: Cytotoxicity in uninfected SupT1 cells (XTT reagent); assay type: cell-based
# Description: as §1
# [12] = gT1b, from M. J. Sofia et al. J. Med. Chem. 2010
smiles,measurement,setting,value
CC(C)(CO)C(=O)SCCOP(=O)(NCc1ccccc1)OC[C@H]1OC(n2cnc3c(=O)[nH]c(N)nc32)[C@](C)(O)[C@@H]1O (stereo partly shown) [IDX-184],EC50,HCV,400 nM
COc1nc(N)nc2c1ncn2[C@@H]1O[C@H](COP(=O)(N[C@@H](C)C(=O)OCC(C)(C)C)Oc2cccc3ccccc23)[C@@H](O)[C@@]1(C)O (stereo partly shown) [INX-08189],EC50,HCV,10 nM
COc1nc(N)nc2c1ncn2C1O[C@H](COP(=O)(N[C@@H](C)C(=O)OC(C)C)Oc2ccccc2)[C@@H](O)[C@@]1(C)F (stereo partly shown) [PSI-353661],EC90,HCV,8 nM
"C[C@H](Cn1cnc2c(N)ncnc21)OC[P@@](=O)(N[C@@H](C)C(=O)OC1CCC1)Oc1ccccc1 [Prodrug 1A.1, (S)-cyclobutyl 2-((S)-(((R)-1-(6-amino-9H-purin-9-yl)propan-2-yloxy)methyl) (phenoxy)phosphorylamino)-propanoate]",EC50,[1],27 nM
same,"selectivity, times higher than TAF","[1]; SupT1 HIV test, versus TAF",1.4 times
same,SI = CC50/EC50,[1],>3704
same,CC50,[2],> 100000 nM
"C[C@H](Cn1cnc2c(N)ncnc21)OC[P@](=O)(N[C@@H](C)C(=O)OC1CCC1)Oc1ccccc1 [Prodrug 1A.2, (S)-cyclobutyl 2-((R)-(((R)-1-(6-amino-9H-purin-9-yl)propan-2-yloxy)methyl) (phenoxy)phosphorylamino)-propanoate]",EC50,[1],38 nM
same,SI = CC50/EC50,[1],>2632
same,CC50,[2],> 100000 nM
"C[C@H](N[P@](=O)(OC[C@H]1O[C@@H](n2ccc(=O)[nH]c2=O)[C@](C)(F)[C@@H]1O)Oc1ccccc1)C(=O)OC1CCC1 [Prodrug 1B.7, (S)-cyclobutyl 2-{(S)-[(2R,3R,4R,5R)-5-(3,4-dihydro-2,4-dioxo-2H-pyrimidin-1-yl)-3-hydroxy-4-methyl-4-fluoro-tetrahydrofuran-2-ylmethoxy]-phenoxy-phosphorylamino}-propanoate]","metabolic rate in human S9 fraction, times faster than Sovaldi",[3]; versus Sovaldi,11 times
same,"metabolic rate in human S9 fraction, times faster than compound 2.1",[3]; versus compound of formula 2.1,28 times
same,T1/2 human plasma,[4],>24 h
same,T1/2 SGF,"physchem; artificial gastric juice, 1 μM, 37° C.",12.7 h
same,T1/2 SIF,"physchem; artificial intestinal juice, 1 μM, 37° C.",>24 h
same,half-life at 1 μM,physchem,12.7 to 17 h
same,half-life at 1 μM,physchem; pH 6.75,> 20 h
"C[C@H](NP(=O)(OC[C@H]1O[C@@H](n2ccc(=O)[nH]c2=O)[C@](C)(F)[C@@H]1O)Oc1ccccc1)C(=O)OC1CCCCC1 (stereo partly drawn) [Prodrug 2.1, cyclohexyl (S)-2-{[(2R,3R,4R,5R)-5-(2,4-dioxo-3,4-dihydro-2H-pyrimidin-1-yl)-4-fluoro-3-hydroxy-4-methyl-tetrahydrofuran-2-ylmethoxy]-phenoxy-phosphorylamino}-propionate]",T1/2 SGF,[5],17* h
same,EC90,[6]; [12],250 nM
same,T1/2 human S9,[7],1.4 h
same,T1/2 human plasma,[8],>24* h
same,T1/2 SIF,[9],>20* h
"C[C@H](N[P@](=O)(OC[C@H]1O[C@@H](n2ccc(=O)[nH]c2=O)[C@](C)(F)[C@@H]1O)Oc1ccccc1)C(=O)OC1CC1 [Prodrug 2.2, (S)-cyclopropyl 2-((S)-(((2R,3R,4R,5R)-5-(2,4-dioxo-3,4-dihydropyrimidin-1(2H)-yl)-3-hydroxy-4-methyl-4-fluoro-tetrahydrofuran-2-yl)methoxy)-(phenoxy)-phosphorylamino)-propanoate]",EC90,[10]; 10% FBS,410 nM
same,EC50,"[10]; Hepatitis C virus, Huh-7, 10% FBS",73 nM
"CC(C)OC(=O)[C@H](C)NP(=O)(OC[C@H]1O[C@@H](n2ccc(=O)[nH]c2=O)[C@](C)(F)[C@@H]1O)Oc1ccccc1 (stereo partly drawn) [Sovaldi ®, isopropyl (S)-2-{[(2R,3R,4R,5R)-5-(2,4-dioxo-3,4-dihydro-2H-pyrimidin-1-yl)-4-fluoro-3-hydroxy-4-methyl-tetrahydrofuran-2-ylmethoxy]-phenoxy-phosphorylamino}-propionate]",T1/2 SGF,[5],22.0* h
same,EC90,[6]; [12],520 nM
same,EC90,"[6]; gT1b, from M. J. Sofia et al. J. Med. Chem. 2010, listed as Sovaldi®",590 nM
same,EC50,[6]; gT1b,45 to 170 nM
same,EC90,[6]; genotype 1b (gT1b) HCV,590 nM
same,EC50,[6]; genotype 1b (gT1b) HCV,45 to 170 nM
same,T1/2 human S9,[7],0.54 h and 0.57 h
same,CC90,[11],> 100000 nM
same,T1/2 human plasma,[8],>24* h
same,T1/2 SIF,[9],>24* h
"CC(C)OC(=O)[C@H](C)N[P@](=O)(CO[C@H](C)Cn1cnc2c(N)ncnc21)Oc1ccccc1 [TAF, temofovir alafenamide]",EC50,[1],35 nM
same,SI = CC50/EC50,[1],2857
same,CC50,SupT1 cells,> 100000 nM
